Patent publication US20260022142A1, “MACROCYCLIC IMMUNOMODULATORS” (Bristol-Myers Squibb Company, priority 2022, published 2026)
pIC50: −log10 of the molar value. Bridge positions count the residues as written; N and C are the ends. Square brackets hold non-standard residues; d marks the D form. Peptide text beside a SMILES is read from it. * marks the point of attachment. Phe(F5) = N[C@@H](Cc1c(F)c(F)c(F)c(F)c1F)C(=O)O; Phe(4-COOH) = N[C@@H](Cc1ccc(C(=O)O)cc1)C(=O)O; Phe(2,4-F2) = N[C@@H](Cc1ccc(F)cc1F)C(=O)O; Bip = N[C@@H](Cc1ccc(-c2ccccc2)cc1)C(=O)O; Phe(2-Cl) = N[C@@H](Cc1ccccc1Cl)C(=O)O; Phe(3-Me) = Cc1cccc(C[C@H](N)C(=O)O)c1; Phe(4-F) = N[C@@H](Cc1ccc(F)cc1)C(=O)O; Phe(2-Me) = Cc1ccccc1C[C@H](N)C(=O)O; Val(3-OH) = CC(C)(O)[C@H](N)C(=O)O; hCha = N[C@@H](CCC1CCCCC1)C(=O)O; 4Pal = N[C@@H](Cc1ccncc1)C(=O)O; Cha = N[C@@H](CC1CCCCC1)C(=O)O; Ahp(2) = CCCCC[C@H](N)C(=O)O; Carboxymethyl = O=C(O)C*; Orn = NCCC[C@H](N)C(=O)O; Pra = C#CC[C@H](N)C(=O)O; Aun = NCCCCCCCCCCC(=O)O; Dab = NCC[C@H](N)C(=O)O; Dap = NC[C@H](N)C(=O)O; AEEA = NCCOCCOCC(=O)O

Molecular target: T1, PD-1/PD-L1 interaction (PE-labeled human PD-L1-Ig binding to Jurkat cell line over-expressing human PD-1) (Homo sapiens, UniProt Q15116)
T1 construct: expressed in transfected cells; host or cells: Jurkat
T1 sequence (Q15116 25-288): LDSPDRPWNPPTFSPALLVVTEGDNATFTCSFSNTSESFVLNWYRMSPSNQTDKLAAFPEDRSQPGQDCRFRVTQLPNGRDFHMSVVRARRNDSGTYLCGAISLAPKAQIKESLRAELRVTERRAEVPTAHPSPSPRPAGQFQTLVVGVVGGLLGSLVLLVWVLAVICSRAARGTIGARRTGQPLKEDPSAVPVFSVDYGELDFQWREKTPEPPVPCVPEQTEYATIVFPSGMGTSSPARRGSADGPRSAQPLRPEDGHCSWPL
Assay: Jurkat-PD-1 Cell Binding High-Content Screening Assay (CBA)
Assay type: cell-based
Settings: Jurkat cell line over-expressing human PD-1; PE-labeled PD-L1-Ig 20 nM final; read-out: Jurkat hPD1-PDL1 IC50
Summary of the method: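 Human PD-L1-Ig carrying a covalent PE label on its Ig tag serves as the probe, applied at 20 nM final to compound-treated (2 h, 37° C) Jurkat-hPD-1 cells in medium with 10% fetal calf serum. After one hour, fixation and nuclear staining precede high-content image analysis.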

Structure (SMILES) | pIC50
Cc1cccc(C[C@@H]2NC(=O)[C@H](CC(=O)O)NC(=O)[C@H](Cc3ccc(OCC(=O)O)cc3)NC(=O)[C@H](CN)NC(=O)CSC[C@@H](C(=O)N[C@@H](CCN)C(=O)NCCOCCOCC(=O)NCCCCCCCCCCC(=O)O)NC(=O)[C@H](CCC(=O)O)NC(=O)[C@H](C(C)C)NC(=O)[C@H](Cc3ccc(F)cc3)NC(=O)[C@H](CCN)NC(=O)[C@@H](CC(C)C)NC(=O)[C@H](CCCN)NC(=O)[C@H](Cc3ccc(OCC(=O)O)cc3)NC(=O)[C@H](Cc3ccc(-c4ccccc4)cc3)NC(=O)[C@H](Cc3ccc(C(=O)O)cc3)NC2=O)c1 [Compound 1270] ({CH2CO}-[Dap]Y(Carboxymethyl)D[Phe(3-Me)][Phe(4-COOH)][Bip]Y(Carboxymethyl)[Orn][dL][Dab][Phe(4-F)]VEC[Dab][AEEA][Aun]-OH; thioether N-14) | 7.32
Cc1cccc(C[C@@H]2NC(=O)[C@H](CC(=O)O)NC(=O)[C@H](Cc3ccc(OCC(=O)O)cc3)NC(=O)[C@H](CN)NC(=O)CSC[C@@H](C(=O)N[C@@H](CCN)C(=O)NCCOCCOCC(=O)NCCCCCCCCCCC(=O)O)NC(=O)[C@H](CCC(=O)O)NC(=O)[C@H](C(C)C)NC(=O)[C@H](Cc3cccc(C)c3)NC(=O)[C@H](CCN)NC(=O)[C@@H](CC(C)C)NC(=O)[C@H](CCCN)NC(=O)[C@H](Cc3ccc(OCC(=O)O)cc3)NC(=O)[C@H](Cc3ccc(-c4ccccc4)cc3)NC(=O)[C@H](Cc3ccc(C(=O)O)cc3)NC2=O)c1 [Compound 1271] ({CH2CO}-[Dap]Y(Carboxymethyl)D[Phe(3-Me)][Phe(4-COOH)][Bip]Y(Carboxymethyl)[Orn][dL][Dab][Phe(3-Me)]VEC[Dab][AEEA][Aun]-OH; thioether N-14) | 7.70
Cc1cccc(C[C@@H]2NC(=O)[C@H](CC(=O)O)NC(=O)[C@H](Cc3ccc(OCC(=O)O)cc3)NC(=O)[C@H](CN)NC(=O)CSC[C@@H](C(=O)N[C@@H](CCN)C(=O)NCCOCCOCC(=O)NCCCCCCCCCCC(=O)O)NC(=O)[C@H](CCC(=O)O)NC(=O)[C@H](C(C)C)NC(=O)[C@H](Cc3ccc(F)cc3F)NC(=O)[C@H](CCN)NC(=O)[C@@H](CC(C)C)NC(=O)[C@H](CCCN)NC(=O)[C@H](Cc3ccc(OCC(=O)O)cc3)NC(=O)[C@H](Cc3ccc(-c4ccccc4)cc3)NC(=O)[C@H](Cc3ccc(C(=O)O)cc3)NC2=O)c1 [Compound 1272] ({CH2CO}-[Dap]Y(Carboxymethyl)D[Phe(3-Me)][Phe(4-COOH)][Bip]Y(Carboxymethyl)[Orn][dL][Dab][Phe(2,4-F2)]VEC[Dab][AEEA][Aun]-OH; thioether N-14) | 7.13
Cc1cccc(C[C@@H]2NC(=O)[C@H](CC(=O)O)NC(=O)[C@H](Cc3ccc(OCC(=O)O)cc3)NC(=O)[C@H](CN)NC(=O)CSC[C@@H](C(=O)N[C@@H](CCN)C(=O)NCCOCCOCC(=O)NCCCCCCCCCCC(=O)O)NC(=O)[C@H](CCC(=O)O)NC(=O)[C@H](C(C)C)NC(=O)[C@H](Cc3c(F)c(F)c(F)c(F)c3F)NC(=O)[C@H](CCN)NC(=O)[C@@H](CC(C)C)NC(=O)[C@H](CCCN)NC(=O)[C@H](Cc3ccc(OCC(=O)O)cc3)NC(=O)[C@H](Cc3ccc(-c4ccccc4)cc3)NC(=O)[C@H](Cc3ccc(C(=O)O)cc3)NC2=O)c1 [Compound 1273] ({CH2CO}-[Dap]Y(Carboxymethyl)D[Phe(3-Me)][Phe(4-COOH)][Bip]Y(Carboxymethyl)[Orn][dL][Dab][Phe(F5)]VEC[Dab][AEEA][Aun]-OH; thioether N-14) | 6.48
Cc1cccc(C[C@@H]2NC(=O)[C@H](CC(=O)O)NC(=O)[C@H](Cc3ccc(OCC(=O)O)cc3)NC(=O)[C@H](CN)NC(=O)CSC[C@@H](C(=O)N[C@@H](CCN)C(=O)NCCOCCOCC(=O)NCCCCCCCCCCC(=O)O)NC(=O)[C@H](CCC(=O)O)NC(=O)[C@H](C(C)C)NC(=O)[C@H](Cc3ccccc3C)NC(=O)[C@H](CCN)NC(=O)[C@@H](CC(C)C)NC(=O)[C@H](CCCN)NC(=O)[C@H](Cc3ccc(OCC(=O)O)cc3)NC(=O)[C@H](Cc3ccc(-c4ccccc4)cc3)NC(=O)[C@H](Cc3ccc(C(=O)O)cc3)NC2=O)c1 [Compound 1274] ({CH2CO}-[Dap]Y(Carboxymethyl)D[Phe(3-Me)][Phe(4-COOH)][Bip]Y(Carboxymethyl)[Orn][dL][Dab][Phe(2-Me)]VEC[Dab][AEEA][Aun]-OH; thioether N-14) | 8.01
CCCCC[C@@H]1NC(=O)[C@H](CCN)NC(=O)[C@@H](CC(C)C)NC(=O)[C@H](CCCN)NC(=O)[C@H](Cc2ccc(OCC(=O)O)cc2)NC(=O)[C@H](Cc2ccc(-c3ccccc3)cc2)NC(=O)[C@H](Cc2ccc(C(=O)O)cc2)NC(=O)[C@H](Cc2cccc(C)c2)NC(=O)[C@H](CC(=O)O)NC(=O)[C@H](Cc2ccc(OCC(=O)O)cc2)NC(=O)[C@H](CN)NC(=O)CSC[C@@H](C(=O)N[C@@H](CCN)C(=O)NCCOCCOCC(=O)NCCCCCCCCCCC(=O)O)NC(=O)[C@H](CCC(=O)O)NC(=O)[C@H](C(C)C)NC1=O [Compound 1275] ({CH2CO}-[Dap]Y(Carboxymethyl)D[Phe(3-Me)][Phe(4-COOH)][Bip]Y(Carboxymethyl)[Orn][dL][Dab][Ahp(2)]VEC[Dab][AEEA][Aun]-OH; thioether N-14) | 7.32
Cc1cccc(C[C@@H]2NC(=O)[C@H](CC(=O)O)NC(=O)[C@H](Cc3ccc(OCC(=O)O)cc3)NC(=O)[C@H](CN)NC(=O)CSC[C@@H](C(=O)N[C@@H](CCN)C(=O)NCCOCCOCC(=O)NCCCCCCCCCCC(=O)O)NC(=O)[C@H](CCC(=O)O)NC(=O)[C@H](C(C)C)NC(=O)[C@H](CCC3CCCCC3)NC(=O)[C@H](CCN)NC(=O)[C@@H](CC(C)C)NC(=O)[C@H](CCCN)NC(=O)[C@H](Cc3ccc(OCC(=O)O)cc3)NC(=O)[C@H](Cc3ccc(-c4ccccc4)cc3)NC(=O)[C@H](Cc3ccc(C(=O)O)cc3)NC2=O)c1 [Compound 1276] ({CH2CO}-[Dap]Y(Carboxymethyl)D[Phe(3-Me)][Phe(4-COOH)][Bip]Y(Carboxymethyl)[Orn][dL][Dab][hCha]VEC[Dab][AEEA][Aun]-OH; thioether N-14) | 7.30
Cc1cccc(C[C@@H]2NC(=O)[C@H](CC(=O)O)NC(=O)[C@H](Cc3ccc(OCC(=O)O)cc3)NC(=O)[C@H](CN)NC(=O)CSC[C@@H](C(=O)N[C@@H](CCN)C(=O)NCCOCCOCC(=O)NCCCCCCCCCCC(=O)O)NC(=O)[C@H](CCC(=O)O)NC(=O)[C@H](C(C)C)NC(=O)[C@H](Cc3ccccc3Cl)NC(=O)[C@H](CCN)NC(=O)[C@@H](CC(C)C)NC(=O)[C@H](CCCN)NC(=O)[C@H](Cc3ccc(OCC(=O)O)cc3)NC(=O)[C@H](Cc3ccc(-c4ccccc4)cc3)NC(=O)[C@H](Cc3ccc(C(=O)O)cc3)NC2=O)c1 [Compound 1277] ({CH2CO}-[Dap]Y(Carboxymethyl)D[Phe(3-Me)][Phe(4-COOH)][Bip]Y(Carboxymethyl)[Orn][dL][Dab][Phe(2-Cl)]VEC[Dab][AEEA][Aun]-OH; thioether N-14) | 7.84
C#CC[C@H](NC(=O)[C@H](CCN)NC(=O)[C@@H]1CSCC(=O)N[C@@H](Cc2ccncc2)C(=O)N[C@@H](Cc2ccc(OCC(=O)O)cc2)C(=O)N[C@@H](CC(=O)O)C(=O)N[C@@H](Cc2cccc(C)c2)C(=O)N[C@@H](Cc2ccc(OC)cc2)C(=O)N[C@@H](Cc2ccc(-c3ccccc3)cc2)C(=O)N[C@@H](Cc2ccc(OCC(=O)O)cc2)C(=O)N[C@@H](CCCN)C(=O)N[C@H](CC(C)C)C(=O)N[C@@H](CCN)C(=O)N[C@@H](CC2CCCCC2)C(=O)N[C@@H](C(C)(C)O)C(=O)N[C@@H](CO)C(=O)N1)C(=O)NCCCCCCCCCCC(=O)O [Compound 1278] ({CH2CO}-[4Pal]Y(Carboxymethyl)D[Phe(3-Me)]Y(Me)[Bip]Y(Carboxymethyl)[Orn][dL][Dab][Cha][Val(3-OH)]SC[Dab][Pra][Aun]-OH; thioether N-14) | 6.85
